Laboratory results reported in US10030016B2 (Sunesis Pharmaceuticals, Inc., priority 2009, dated 2018).
Where two headings read alike, the source gives them in different places.

Legend:
PDK1 = PDK1 (Homo sapiens (Human), UniProt O15530); experiment: PDK1 kinase assay (coupled PDK1/AKT/FAM-crosstide assay, IMAP fluorescence polarization); assay type: biochemical
Method in brief: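 GST-tagged PDK1 (aa 51-359, 0.75 nM) was coupled to unphosphorylated GST-AKT2 140-467-PIFtide (10 nM) and 100 nM FAM-crosstide at 40 μM ATP, in Tris pH 7.2 buffer, for 30 min at 25 °C. Crosstide phosphorylation was read by IMAP fluorescence polarization (ΔmP) and fitted with a 4-parameter curve.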

[1] = tested on: phospho-akt (Thr308) in PC-3 cells; experiment: Inhibition of phospho-akt (Thr308) in PC-3 cells, MSD phospho-akt 308 ELISA kit; assay type: cell-based; details: inhibition of P308 Akt in PC-3 cells using MSD, 2 hours, no serum, read-out: EC50
Method in brief: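 PC-3 cells (15,000/well, overnight in 10% FBS medium) treated 2 h with three-fold diluted compounds in serum-free medium; DMSO high and 5 μM wortmannin low controls. Lysates captured on BSA-blocked MSD plates overnight at 4 °C, then 1 h antibody detection at RT; phospho-Akt Thr308 read by MSD electrochemiluminescence.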

PDK1, sequence (O15530 51-359): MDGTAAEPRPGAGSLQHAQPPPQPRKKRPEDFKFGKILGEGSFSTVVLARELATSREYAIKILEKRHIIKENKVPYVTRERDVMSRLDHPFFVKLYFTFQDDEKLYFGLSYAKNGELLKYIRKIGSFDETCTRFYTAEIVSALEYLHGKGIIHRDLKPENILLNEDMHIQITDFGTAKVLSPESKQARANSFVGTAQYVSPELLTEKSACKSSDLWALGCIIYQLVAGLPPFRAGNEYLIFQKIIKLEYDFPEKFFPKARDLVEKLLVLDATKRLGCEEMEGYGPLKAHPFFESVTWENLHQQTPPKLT

Row | IC50 (PDK1; inhibition of PDK1 in vitro) [nM] | EC50 ([1]; Homo sapiens) [nM] | EC50 [1] [nM] | Compound | IC50 (PDK1) [nM]
1 | < 100 | 1000 to 10000 | – | C[C@H](NC(=O)c1nc(C#N)cnc1NCc1ccc(-c2cnc(N)c(CC[C@@H]3CCCN3)n2)cc1)c1ccc(F)c(F)c1 [Example 78, 3-{4-[5-Amino-6-((S)-2-pyrrolidin-2-yl-ethyl)-pyrazin-2-yl]-benzylamino}-6-cyano-pyrazine-2-carboxylic acid [(S)-1-(3,4-difluoro-phenyl)-ethyl]-amide] | –
2 | < 100 | < 1000 | – | C[C@H](NC(=O)c1cc(C#N)cnc1NCc1ccc(-c2cnc(N)c(CCC(C)(C)N)n2)cc1)c1ccc(F)cc1 [Example 82, 2-{4-[5-Amino-6-(3-amino-3-methyl-butyl)-pyrazin-2-yl]-benzylamino}-5-cyano-N-[(S)-1-(4-fluoro-phenyl)-ethyl]-nicotinamide] | –
3 | < 100 | < 1000 | – | CC(C)(N)CCc1nc(-c2ccc(CNc3ncc(C(F)(F)F)cc3C(=O)Nc3ccc(F)cc3)cc2)cnc1N [Example 83, 2-{4-[5-Amino-6-(3-amino-3-methyl-butyl)-pyrazin-2-yl]-benzylamino}-N-(4-fluoro-phenyl)-5-trifluoro-methyl-nicotinamide] | –
4 | < 100 | < 1000 | – | C[C@H](NC(=O)c1nc(C#N)cnc1NCc1ccc(-c2cnc(N)c(CCC(C)(C)N)n2)cc1)c1ccc(F)c(F)c1 [Example 84, 3-{4-[5-Amino-6-(3-amino-3-methyl-butyl)-pyrazin-2-yl]-benzylamino}-6-cyano-pyrazine-2-carboxylic acid [(S)-1-(3,4-difluoro-phenyl)-ethyl]-amide] | –
5 | < 100 | < 1000 | – | CC(N)CCc1nc(-c2ccc(CNc3ncc(C#N)cc3C(=O)N[C@@H](C)c3ccc(F)cc3)cc2)cnc1N (stereo partly drawn) [Example 85, 2-{4-[5-Amino-6-(3-amino-butyl)-pyrazin-2-yl]-benzylamino}-5-cyano-N-[(S)-1-(4-fluoro-phenyl)-ethyl]-nicotinamide] | –
6 | < 100 | – | < 1000 | CC(N)CCc1nc(-c2ccc(CNc3ncc(C(F)(F)F)cc3C(=O)Nc3ccc(F)cc3)cc2)cnc1N (stereo not shown) [Example 86, 2-{4-[5-Amino-6-(3-amino-butyl)-pyrazin-2-yl]-benzylamino}-N-(4-fluoro-phenyl)-5-trifluoro-methyl-nicotinamide] | –
7 | < 100 | < 1000 | – | CC(N)CCc1nc(-c2ccc(CNc3ncc(C#N)nc3C(=O)N[C@@H](C)c3ccc(F)c(F)c3)cc2)cnc1N (stereo partly drawn) [Example 87, 3-{4-[5-Amino-6-(3-amino-butyl)-pyrazin-2-yl]-benzylamino}-6-cyano-pyrazine-2-carboxylic acid [(S)-1-(3,4-difluoro-phenyl)-ethyl]-amide] | –
8 | < 100 | < 1000 | – | C[C@H](NC(=O)c1cc(C#N)cnc1NCc1ccc(-c2cnc(N)c(CCCN3CCOCC3)n2)cc1)c1ccc(F)cc1 [Example 88, 2-{4-[5-Amino-6-(3-morpholin-4-yl-propyl)-pyrazin-2-yl]-benzyl-amino}-5-cyano-N-[(S)-1-(4-fluoro-phenyl)-ethyl]-nicotinamide] | –
9 | < 100 | < 1000 | – | C[C@H](NC(=O)c1cc(C#N)cnc1NCc1ccc(-c2cnc(N)c(CCCCN3CCOCC3)n2)cc1)c1ccc(F)cc1 [Example 89, 2-{4-[5-Amino-6-(4-morpholin-4-yl-butyl)-pyrazin-2-yl]-benzyl-amino}-5-cyano-N-[(S)-1-(4-fluoro-phenyl)-ethyl]-nicotinamide] | –
10 | < 100 | < 1000 | – | C[C@H](NC(=O)c1cc(C#N)cnc1NCc1ccc(-c2cnc(N)c(CCCCO)n2)cc1)c1ccc(F)cc1 [Example 90, 2-{4-[5-Amino-6-(4-hydroxy-butyl)-pyrazin-2-yl]-benzyl-amino}-5-cyano-N-[(S)-1-(4-fluoro-phenyl)-ethyl]-nicotinamide] | –
11 | < 100 | < 1000 | – | C[C@H](NC(=O)c1cc(C#N)cnc1NCc1ccc(-c2cnc(N)c(CCCO)n2)cc1)c1ccc(F)cc1 [Example 91, 2-{4-[5-Amino-6-(3-hydroxy-propyl)-pyrazin-2-yl]-benzyl-amino}-5-cyano-N-[(S)-1-(4-fluoro-phenyl)-ethyl]-nicotinamide] | –
12 | < 100 | 1000 to 10000 | – | COCCCc1nc(-c2ccc(CNc3ncc(C#N)cc3C(=O)N[C@@H](C)c3ccc(F)cc3)cc2)cnc1N [Example 92, 2-{4-[5-Amino-6-(3-methoxy-propyl)-pyrazin-2-yl]-benzyl-amino}-5-cyano-N-[(S)-1-(4-fluoro-phenyl)-ethyl]-nicotinamide] | –
13 | < 100 | < 1000 | – | CNCCCc1nc(-c2ccc(CNc3ncc(C#N)cc3C(=O)N[C@@H](C)c3ccc(F)cc3)cc2)cnc1N [Example 93, 2-{4-[5-Amino-6-(3-methylamino-propyl)-pyrazin-2-yl]-benzyl-amino}-5-cyano-N-[(S)-1-(4-fluoro-phenyl)-ethyl]-nicotinamide] | –
14 | < 100 | < 1000 | – | C[C@H](NC(=O)c1nc(C#N)cnc1NCc1ccc(-c2cnc(N)c(CCCN)n2)cc1)c1ccc(F)c(F)c1 [Example 94, 3-{4-[5-Amino-6-(3-amino-propyl)-pyrazin-2-yl]-benzyl-amino}-6-cyano-pyrazine-2-carboxylic acid [(S)-1-(3,4-difluoro-phenyl)-ethyl]-amide] | –
15 | < 100 | < 1000 | – | C[C@H](NC(=O)c1nc(C#N)cnc1NCc1ccc(-c2cnc(N)c(CCCO)n2)cc1)c1ccc(F)c(F)c1 [Example 95, 3-{4-[5-Amino-6-(3-hydroxy-propyl)-pyrazin-2-yl]-benzyl-amino}-6-cyano-pyrazine-2-carboxylic acid [(S)-1-(3,4-difluoro-phenyl)-ethyl]-amide] | –
16 | < 100 | 1000 to 10000 | – | C[C@H](NC(=O)c1cc(C#N)cnc1NCc1ccc(-c2n[nH]c3ncnc(N)c23)cc1)c1ccc(F)cc1 [Example 96, 2-[4-(4-Amino-1H-pyrazolo [3,4-d]pyrimidin-3-yl)-benzylamino]-5-cyano-N-[(S)-1-(4-fluoro-phenyl)-ethyl]-nicotinamide] | –
17 | < 100 | 1000 to 10000 | – | C[C@H](NC(=O)c1cc(C#N)cnc1NCc1ccc(-c2nn(C)c3ncnc(N)c23)cc1)c1ccc(F)cc1 [Example 98, (S)-2-(4-(4-amino-1-methyl-1H-pyrazolo[3,4-d]pyrimidin-3-yl)benzylamino)-5-cyano-N-(1-(4-fluorophenyl)ethyl)nicotinamide] | –
18 | < 100 | – | < 1000 | C[C@H](NC(=O)c1cc(C#N)cnc1NCc1ccc(-c2c[nH]c3ncnc(N)c23)cc1F)c1ccc(F)cc1 [Example 99, (S)-2-(4-(4-amino-7H-pyrrolo[2,3-d]pyrimidin-5-yl)-2-fluorobenzylamino)-5-cyano-N-(1-(4-fluorophenyl)ethyl) nicotinamide] | –
19 | < 100 | – | 1000 to 10000 | C[C@H](NC(=O)c1cc(C#N)cnc1NCc1ccc(-c2c[nH]c3ncnc(N)c23)c(F)c1)c1ccc(F)cc1 [Example 100, (S)-2-(4-(4-amino-7H-pyrrolo[2,3-d]pyrimidin-5-yl)-3-fluorobenzylamino)-5-cyano-N-(1-(4-fluorophenyl)ethyl) nicotinamide] | –

Row | Compound | IC50 (PDK1; inhibition of PDK1 in vitro) [nM] | EC50 ([1]; Homo sapiens) [nM] | EC50 [1] [nM] | IC50 (PDK1) [nM]
20 | C[C@H](NC(=O)c1nc(C#N)cnc1NCc1ccc(-c2cnc(N)c(CCC3CCCNC3)n2)cc1)c1ccc(F)c(F)c1 (stereo partly shown) [Example 81] | – | 1000 to 10000 | – | < 100
